Legend:
Test in all cases: relative viability (nuclei count vs DMSO), 5 days (fraction); higher = more cells survive
[1] = tested on: A-427
Method in brief: (§1)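 For relative viability, nuclei counts in treated wells were divided by those in vehicle wells. Lung cancer cell lines had been pin-tool dosed in 1536-well plates the day after seeding and cultured for 5 days, then fixed and stained in one step (final 0.05% Triton X-100, 1% formaldehyde, 1 ug/ml Hoechst) and imaged at 4×. Doses were one drug alone or a fixed anchor-drug dose plus five library-drug doses (not always all listed) in √10 steps, and values are duplicate-plate medians.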

[2] = tested on: CAL-12T
Method in brief: as §1

[3] = tested on: COR-L 105
Method in brief: as §1

[4] = tested on: COR-L23
Method in brief: as §1

[5] = tested on: EPLC-272H
Method in brief: as §1

[6] = tested on: HOP-62
Method in brief: as §1

[7] = tested on: LCLC-103H
Method in brief: as §1

[8] = tested on: LXF-289
Method in brief: as §1

[9] = tested on: NCI-H1395
Method in brief: as §1

[10] = tested on: NCI-H1651
Method in brief: as §1

[11] = tested on: NCI-H1975
Method in brief: as §1

[12] = tested on: NCI-H1993
Method in brief: as §1

[13] = tested on: NCI-H2023
Method in brief: as §1

[14] = tested on: NCI-H2085
Method in brief: as §1

[15] = tested on: NCI-H2087
Method in brief: as §1

[16] = tested on: NCI-H2170
Method in brief: as §1

[17] = tested on: NCI-H3122
Method in brief: as §1

[18] = tested on: NCI-H596
Method in brief: as §1

[19] = tested on: NCI-H647
Method in brief: as §1

[20] = tested on: NCI-H650
Method in brief: as §1

[21] = tested on: PC-14
Method in brief: as §1

[22] = tested on: RERF-LC-KJ
Method in brief: as §1

[23] = tested on: SK-MES-1
Method in brief: as §1

## O=c1[nH]c2ccccc2n1C1CCN(CCCC(c2ccc(F)cc2)c2ccc(F)cc2)CC1 [Pimozide] + CS(=O)(=O)N1CCN(Cc2cc3nc(-c4cccc5[nH]ncc45)nc(N4CCOCC4)c3s2)CC1 [Pictilisib] (partner 1 µM)
[1]; first compound 0.08 µM
  relative viability: 0.723
[1]; first compound 0.253 µM
  relative viability: 0.729
[1]; first compound 0.8 µM
  relative viability: 0.538
[1]; first compound 2.53 µM
  relative viability: 0.68
[1]; first compound 8 µM
  relative viability: 0.668
[2]; first compound 0.08 µM
  relative viability: 0.399
[2]; first compound 0.253 µM
  relative viability: 0.244
[2]; first compound 0.8 µM
  relative viability: 0.418
[2]; first compound 2.53 µM
  relative viability: 0.462
[2]; first compound 8 µM
  relative viability: 0.332
[3]; first compound 0.253 µM
  relative viability: 0.507
[3]; first compound 0.8 µM
  relative viability: 0.449
[3]; first compound 2.53 µM
  relative viability: 0.338
[3]; first compound 8 µM
  relative viability: 0.353
[4]; first compound 0.08 µM
  relative viability: 0.705
[4]; first compound 0.253 µM
  relative viability: 0.75
[4]; first compound 0.8 µM
  relative viability: 0.638
[4]; first compound 2.53 µM
  relative viability: 0.702
[4]; first compound 8 µM
  relative viability: 0.632
[5]; first compound 0.08 µM
  relative viability: 0.302
[5]; first compound 0.253 µM
  relative viability: 0.269
[5]; first compound 0.8 µM
  relative viability: 0.273
[5]; first compound 2.53 µM
  relative viability: 0.258
[5]; first compound 8 µM
  relative viability: 0.238
[6]; first compound 0.08 µM
  relative viability: 0.687
[6]; first compound 0.253 µM
  relative viability: 0.694
[6]; first compound 2.53 µM
  relative viability: 0.687
[6]; first compound 8 µM
  relative viability: 0.635
[7]; first compound 0.08 µM
  relative viability: 0.593
[7]; first compound 0.253 µM
  relative viability: 0.513
[7]; first compound 0.8 µM
  relative viability: 0.466
[7]; first compound 2.53 µM
  relative viability: 0.574
[7]; first compound 8 µM
  relative viability: 0.528
[8]; first compound 0.08 µM
  relative viability: 0.75
[8]; first compound 0.253 µM
  relative viability: 0.799
[8]; first compound 0.8 µM
  relative viability: 0.781
[8]; first compound 2.53 µM
  relative viability: 0.744
[8]; first compound 8 µM
  relative viability: 0.719
[9]; first compound 0.08 µM
  relative viability: 0.647
[9]; first compound 0.253 µM
  relative viability: 0.598
[9]; first compound 0.8 µM
  relative viability: 0.634
[9]; first compound 2.53 µM
  relative viability: 0.679
[9]; first compound 8 µM
  relative viability: 0.681
[10]; first compound 0.08 µM
  relative viability: 0.62
[10]; first compound 0.253 µM
  relative viability: 0.506
[10]; first compound 0.8 µM
  relative viability: 0.685
[10]; first compound 2.53 µM
  relative viability: 0.543
[10]; first compound 8 µM
  relative viability: 0.465
[11]; first compound 0.08 µM
  relative viability: 0.282
[11]; first compound 0.253 µM
  relative viability: 0.262
[11]; first compound 0.8 µM
  relative viability: 0.297
[11]; first compound 2.53 µM
  relative viability: 0.28
[11]; first compound 8 µM
  relative viability: 0.202
[12]; first compound 0.08 µM
  relative viability: 0.751
[12]; first compound 0.253 µM
  relative viability: 0.902
[12]; first compound 0.8 µM
  relative viability: 0.778
[12]; first compound 2.53 µM
  relative viability: 0.91
[12]; first compound 8 µM
  relative viability: 0.846
[13]; first compound 0.08 µM
  relative viability: 0.214
[13]; first compound 0.253 µM
  relative viability: 0.24
[13]; first compound 0.8 µM
  relative viability: 0.212
[13]; first compound 2.53 µM
  relative viability: 0.223
[13]; first compound 8 µM
  relative viability: 0.202
[14]; first compound 0.08 µM
  relative viability: 0.446
[14]; first compound 0.253 µM
  relative viability: 0.532
[14]; first compound 0.8 µM
  relative viability: 0.525
[14]; first compound 2.53 µM
  relative viability: 0.486
[14]; first compound 8 µM
  relative viability: 0.415
[15]; first compound 0.08 µM
  relative viability: 0.9
[15]; first compound 0.253 µM
  relative viability: 0.994
[15]; first compound 0.8 µM
  relative viability: 0.824
[15]; first compound 2.53 µM
  relative viability: 0.784
[15]; first compound 8 µM
  relative viability: 0.62
[16]; first compound 0.08 µM
  relative viability: 0.308
[16]; first compound 0.253 µM
  relative viability: 0.382
[16]; first compound 0.8 µM
  relative viability: 0.299
[16]; first compound 2.53 µM
  relative viability: 0.326
[16]; first compound 8 µM
  relative viability: 0.236
[17]; first compound 0.08 µM
  relative viability: 0.523
[17]; first compound 0.253 µM
  relative viability: 0.588
[17]; first compound 0.8 µM
  relative viability: 0.514
[17]; first compound 2.53 µM
  relative viability: 0.594
[17]; first compound 8 µM
  relative viability: 0.573
[18]; first compound 0.08 µM
  relative viability: 0.414
[18]; first compound 0.253 µM
  relative viability: 0.488
[18]; first compound 0.8 µM
  relative viability: 0.251
[18]; first compound 2.53 µM
  relative viability: 0.356
[18]; first compound 8 µM
  relative viability: 0.344
[19]; first compound 0.08 µM
  relative viability: 0.389
[19]; first compound 0.253 µM
  relative viability: 0.39
[19]; first compound 0.8 µM
  relative viability: 0.448
[19]; first compound 2.53 µM
  relative viability: 0.383
[19]; first compound 8 µM
  relative viability: 0.334
[20]; first compound 0.08 µM
  relative viability: 0.851
[20]; first compound 0.253 µM
  relative viability: 0.852
[20]; first compound 0.8 µM
  relative viability: 0.878
[20]; first compound 2.53 µM
  relative viability: 0.92
[20]; first compound 8 µM
  relative viability: 1.09
[21]; first compound 0.253 µM
  relative viability: 0.631
[21]; first compound 0.8 µM
  relative viability: 0.738
[21]; first compound 2.53 µM
  relative viability: 0.716
[21]; first compound 8 µM
  relative viability: 0.634
[22]; first compound 0.08 µM
  relative viability: 0.597
[22]; first compound 0.253 µM
  relative viability: 0.524
[22]; first compound 0.8 µM
  relative viability: 0.522
[22]; first compound 2.53 µM
  relative viability: 0.505
[22]; first compound 8 µM
  relative viability: 0.452
[23]; first compound 0.08 µM
  relative viability: 0.305
[23]; first compound 0.253 µM
  relative viability: 0.308
[23]; first compound 0.8 µM
  relative viability: 0.36
[23]; first compound 2.53 µM
  relative viability: 0.38
[23]; first compound 8 µM
  relative viability: 0.341

From the supplement of paper PMC10307832
